The source of these data is patent US9345700B2, “Compositions and methods useful for treating diseases” (Eutropics Pharmaceuticals, Inc., priority 2011, dated 2016).

The test system of test [1] is SUDHL-10. The experiment in a line: In situ mitochondrial cytochrome c release assay, semi-permeabilized SUDHL-10. Conditions: 20 uM; BAX/BAK-deficient cell line. It counts as cell-based, human. The source says:
(§1) The on-target activity of compound II-19 was validated. Changes in mitochondrial integrity were observed utilizing anti-cytochrome c conjugated to Alexa488 (BD). When the mitochondria are intact, they retain cytochrome c and have bright, punctate staining with the antibody whereas cells with compromised mitochondrial integrity will lose cytochrome c and will not stain with the antibody. This can be observed by microscopy as well as measured by a shift in fluorescence on the FL1 channel of a flow cytometer.
(§2) The selective response of mitochondria in semi-permeabilized cell lines to the compounds was observed. The assay was adapted from (Campos et al. (2006) Cytometry Part A. 69 (A):515-523).
(§3) Suspension cell lines SUDHL10 and SUDHL6 were grown in RPMI, washed once in 1×PBS and re-suspended at a concentration of 2e6/ml in assay buffer with 0.0025% Digitonin. Assay buffer; 300 mM Trehalose, 10 mM HEPES-KOH pH 7.7, 80 mM KCl, 1 mM EGTA, 1 mM EDTA, 0.1% BSA, 5 mM Succinate. Cells are incubated with test and control compounds at 10^6 cells/treatment for 1 hour at room temperature. Samples are fixed with 4% formaldehyde in PBS for 20 minutes, washed once in PBS, and blocked with 2% FBS/0.5% TritonX-100 in PBS. Samples are re-suspended in blocking buffer with 1:250 anti-cytochrome c conjugated to Alexa488 (BD Cat#56028) for 1 hour at 4° C., washed once with blocking buffer and re-suspended in 200 ul PBS. Cytochrome c loss was measured by microscopy. At least 100 cells per treatment were counted and scored as positive for cytochrome c loss if they lacked staining. In both methods DMSO was calculated as 0% cytochrome c loss and the Bim response for DHL6 was used to determine 100% cytochrome c loss.

For test [2], the system named is SUDHL-6. The experiment in a line: In situ mitochondrial cytochrome c release assay, semi-permeabilized SUDHL-6. Particulars: 20 uM; BAX/BAK-functional cell line. It is filed as cell-based, human.
Excerpt: as §1, §2, §3

Test [3] has as its system mitochondria from NCI 929. In words: BH3 profiling of mitochondria isolated from NCI 929. It is filed as cell-based. Particulars: isolated mitochondria of NCI 929. The source says:
As another test of the ability of BH3 profiling to detect in vivo Mcl-1 dependence, the cancer cell line NCI 929 (obtained from ATCC) is examined. Mitochondria are isolated from this cell line and exposed to the panel of BH3 peptides in Table 1 and to compounds of Formula I or Formula II. MOMP is quantitated by JC-1 fluorescence and cytochrome c release is quantitated by ELISA as described in Examples 4 and 5. NCI 929 cells are sensitive to treatment with compounds of Formula I or Formula II in vitro. […] On the other hand, treatment of the mitochondria with compounds of Formula I or Formula II induces MOMP as measured by a decrease in the red JC-1 aggregate fluorescence and as measured by an increase in cytochrome c release. This provides support that compounds of formula identified Formula I or Formula II can substitute for Noxa in the mitochondrial BH3 profiling assay and that the mitochondrial response to these compounds is a powerful predictor of what cells are sensitive to Mcl-1 inhibiting drugs in vitro and in vivo.

Entries after “also recorded” stand apart in the source; their conditions may differ.

`O=C(Nc1cccnc1)c1cc(-c2ccco2)nc2ccc(-c3ccc4scnc4c3)cc12` [Compound 18, 6-(benzo[d]thiazol-5-yl)-2-(furan-2-yl)-N-(pyridin-3-yl)quinoline-4-carboxamide]: in test [1], the “release of cytochrome c in SUDHL-10” value is “lack of activity and not”. Further, the “release of cytochrome c in SUDHL-6” value in test [2] is recorded as “activity; also recorded: cause release of cytochrome c”. Regarding `O=C(Nc1ccccc1)c1cc(-c2ccco2)nc2ccc(-c3ccc4scnc4c3)cc12` [Compound 33, 6-(benzo[d]thiazol-5-yl)-2-(furan-2-yl)-N-phenylquinoline-4-carboxamide], the “release of cytochrome c in SUDHL-10” value in test [1] was “lack of activity and not”. The “release of cytochrome c in SUDHL-6” value in test [2] is given as “activity; also recorded: cause release of cytochrome c”.

For the compound `O=C(Nc1cccnc1)c1cc(-c2cnn(C3CCCCO3)c2)nc2ccc(-c3ccccc3)cc12` (stereo not drawn) [Compound 37, 6-phenyl-N-(pyridin-3-yl)-2-(1-(tetrahydro-2H-pyran-2-yl)-1H-pyrazol-4-yl)quinoline-4-carboxamide], the “release of cytochrome c in SUDHL-10” value in test [1] was “lack of activity and not”. Further, in test [2], the “release of cytochrome c in SUDHL-6” value is on record as “activity; also recorded: cause release of cytochrome c”. As to `O=C(Nc1cccnc1)c1cc(-c2cn[nH]c2)nc2ccc(-c3ccccc3)cc12` [Compound 38, 6-phenyl-2-(1H-pyrazol-4-yl)-N-(pyridin-3-yl)quinoline-4-carboxamide], the “release of cytochrome c in SUDHL-10” value in test [1] is “lack of activity and not”. Also, the “release of cytochrome c in SUDHL-6” value in test [2] is recorded as “activity; also recorded: cause release of cytochrome c”. Consider “Bad: Bcl-xL reactive BH3 domain peptide Bad from the Table 1 panel (LWAAQRYGRELRRMSDEFEGSFKGL)”, for which the “mitochondrial response to BH3 peptide” value in test [3] is “lacking a response”.
